Reference: patent publication US20110230481A2, “DERIVATIVES OF TETRABROMOBENZIMIDAZOLE, A PROCESS FOR THE PREPARATION THEREOF, A PHARMACEUTICAL COMPOSITION COMPRISING THE SAME, A METHOD OF USING THE SAME, A METHOD FOR MODULATING OR REGULATING SERINE/THREONINE KINASES, AND SERINE/THREONINE KINASES MODULATING AGENT” (SELVITA S.A., priority 2009, published 2011)

Test system: panel of 440 kinases
Assay: KINOMEscan Max, whole panel
Type: binding, human
Conditions: 1 μM
Method: Kinase panel profiling was performed at Ambit Kinomescan (http://www.ambitbio.com/technology/) using the “KINOMEscan™ Max” assay platform, a high-throughput method for screening small molecule compounds against large numbers of human kinases. KINOMEscan™ is based on a competition binding assay that quantitatively measures the ability of a compound to compete with an immobilized, active-site directed ligand. The assay is performed by combining three components: DNA-tagged kinase; immobilized ligand; and a test compound. The ability of the test compound to compete with the immobilized ligand is measured via quantitative PCR of the DNA tag. For a description of Ambit's assay protocol, see Fabian et al. A small molecule-kinase interaction map for clinical kinase inhibitors. Nat. Biotechnol. 23, 329-336 (2005).
Selectivity of kinase inhibition is one of the key parameters in therapeutic use of this class of compounds. Off-target inhibition could be one of the major safety and toxicity issues in drug development and use of the compounds for treatment of various disease conditions. For this reason, development of selective kinase inhibitors is desired, to limit possible adverse effects. Therefore compounds disclosed in the application were tested on a panel of 440 kinases to determine specificity in PIM kinase inhibition. Table 5 provides selectivity data for representative compound N-(3-aminopropyl)-4,5,6,7-tetrabromo-1H-benzo[d]imidazol-2-amine (compound 11). As indicated in the Table 5 when tested at 1 μM concentration N-(3-aminopropyl)-4,5,6,7-tetrabromo-1H-benzo[d]imidazol-2-amine inhibited substrate biding of only 12 kinases (2% of the whole panel)>90%, whereas for over 93% of the tested kinases in the panel, substrate binding was basically not affected by compound 11. Pim kinases, but also HIPK, DYRK and CLK kinases and FTL3 mutants were identified as the primary targets for inhibition by compound 11 and selectivity for Pim kinases over other kinases was further confirmed in radiometric kinase assays.

NCCCNc1nc2c(Br)c(Br)c(Br)c(Br)c2[nH]1 [Compound 11, N-(3-aminopropyl)-4,5,6,7-tetrabromo-1H-benzo[d]imidazol-2-amine]
number of kinases with substrate binding inhibited >90%: 12
share of tested kinases with substrate binding basically not affected: over 93%
share of the whole panel with substrate binding inhibited >90%: 2%
